# Measurements reported in US20200393397A1, “DEVICE FOR PERFORMING ELECTRICAL MEASUREMENTS” (Mimetas B.V., priority 2018, published 2020).
# Test system: Caco-2 tubules
# Test: TEER measurement of Caco-2 tubules in 2-lane Organoplate during staurosporine exposure
# Format: cell-based, human
# Protocol: Day 0: Collagen-1 gel was injected into one of the channels (gel channel) of a 2-lane Organoplate. After curing of the gel, Caco-2 cells (Sigma, human colon carcinoma cells) in culture medium were seeded in the other channel (perfusion channel) and allowed to proliferate. Culture medium was refreshed daily. […] Following this protocol, 40 chips, comprising a gel channel and a perfusion channel separated by a phaseguide, were seeded with Caco-2 cells, meaning that 40 tubules were grown simultaneously in a single 2-lane Organoplate. The method of culturing cells in this system is similar to the one described by Trietsch et al (Nature Communications, volume 8, Article number: 262(2017), doi:10.1038/s41467-017-00259-3).
# A TEER measurement was performed daily at days 1 to 11. To this end, gold plated electrodes were inserted into the access wells of the gel and perfusion channel. For 5 to 10 seconds per chip, impedance spectra were recorded at frequencies ranging logarithmically from 10 Hz to 1 MHz.
# At day 5, the 40 Caco-2 tubules were exposed to different concentrations of staurosporine (Sigma, S4400) for 12 hours.
smiles,measurement,setting,value
CN[C@@H]1C[C@H]2O[C@@](C)([C@@H]1OC)n1c3ccccc3c3c4c(c5c6ccccc6n2c5c31)C(=O)NC4 [staurosporine],effect on the TEER,"day 5, concentration of 47 nM, 12 hours exposure (FIG. 8)",an effect on the TEER can be observed
same,effect on the TEER values,"day 5, exposure to different concentrations for 12 hours (FIG. 8)",concentration dependent effect
